According to EP0908457B1, “3-(1,2-benzisothiazol- and isoxazol-5-Y1)-2,4(1H,3H)-pyrimidinedione or thione and 3-(1,2-benzisothiazol- and isoxazol-5-y1)-4(3H)-pyrimidinone or thione herbicidal agents” (BASF AKTIENGESELLSCHAFT, priority 1997, dated 1999):

Assays:
Sagittaria pygmaea, L. = experiment: Preemergence weed control under flooded paddy conditions, SAGPY (Arrowhead (Pygmaea)); assay type: in vivo; conditions: flooded paddy; as to herbicidal effect rating, SAGPY: meaning of each grade not given here
[1] = system: Monochoria vaginalis, Presl.; experiment: Preemergence weed control under flooded paddy conditions, MOOVA (Monochoria); assay type: in vivo; conditions: flooded paddy; as to herbicidal effect rating, MOOVA: meaning of each grade not given here
[2] = system: Cyperus serotinus, Rottb.; experiment: Preemergence weed control under flooded paddy conditions, CYPSE (Flatsedge); assay type: in vivo; as to herbicidal effect rating, CYPSE: meaning of each grade not given here
Cyperus iria = experiment: Preemergence weed control under flooded paddy conditions, CYPIR (Rice Flatsedge); assay type: in vivo; conditions: flooded paddy; as to herbicidal effect rating, CYPIR: meaning of each grade not given here
[3] = system: Oryza sativa, (L.) Tebonnet; experiment: Rice tolerance to post-transplant applications under flooded paddy conditions (Example 187), ORYSAT (Rice, Tebonnet); as to herbicidal effect rating ORYSAT: meaning of each grade not given here
[4] = system: Echinochloa oryzoides (Ard.) Fritsch.; experiment: Preemergence weed control under flooded paddy conditions, ECHORC (Watergrass (Calif.)); assay type: in vivo; conditions: flooded paddy; as to herbicidal effect rating, ECHORC: meaning of each grade not given here
[5] = 0.0320 kg/ha, preemergence, rated three to four weeks after treatment
[6] = 0.0620 kg/ha, preemergence, rated three to four weeks after treatment
[7] = 0.1250 kg/ha, preemergence, rated three to four weeks after treatment
[8] = 0.2500 kg/ha, preemergence, rated three to four weeks after treatment
[9] = 0.1250 kg/ha, rated three to four weeks after treatment
[10] = 0.2500 kg/ha, rated three to four weeks after treatment
[11] = Rate 0.2500 kg/ha, preemergence weeds, rated three to four weeks after treatment
[12] = 0.0313 kg/ha, preemergence weeds, rated three to four weeks after treatment
[13] = 0.0625 kg/ha, preemergence weeds, rated three to four weeks after treatment
[14] = 0.1250 kg/ha, preemergence weeds, rated three to four weeks after treatment
[15] = 0.2500 kg/ha, preemergence weeds, rated three to four weeks after treatment
[16] = Rate 0.0320 kg/ha, preemergence, rated 3-4 weeks after treatment
[17] = Rate 0.0620 kg/ha, preemergence, rated 3-4 weeks after treatment
[18] = Rate 0.1250 kg/ha, preemergence, rated 3-4 weeks after treatment
[19] = Rate 0.2500 kg/ha, preemergence, rated 3-4 weeks after treatment
[20] = Rate 0.0320 kg/ha, rated 3-4 weeks after treatment
[21] = Rate 0.0620 kg/ha, rated 3-4 weeks after treatment
[22] = Rate 0.1250 kg/ha, rated 3-4 weeks after treatment
[23] = Rate 0.2500 kg/ha, rated 3-4 weeks after treatment
[24] = Rate 0.5000 kg/ha, preemergence, rated 3-4 weeks after treatment

Cn1c(C(F)(F)F)cc(=O)n(-c2ccc3snc(C(=O)NS(N)(=O)=O)c3c2)c1=O [Example 472, 1,2-Benzisothiazole-3-carboxamide, 5-[3,6-dihydro-3-methyl-2,6-dioxo-4-(trifluoromethyl)-1(2H)-pyrimidinyl]-N-sulfamoyl-]
SAGPY herbicidal rating (Sagittaria pygmaea, L.; [5]): 0.0
SAGPY herbicidal rating (Sagittaria pygmaea, L.; [6]): 0.0
SAGPY herbicidal rating (Sagittaria pygmaea, L.; [7]): 2.0
SAGPY herbicidal rating (Sagittaria pygmaea, L.; [8]): 3.0
MOOVA herbicidal rating [1, 5]: 5.0
MOOVA herbicidal rating [1, 6]: 6.0
MOOVA herbicidal rating [1, 7]: 7.0
MOOVA herbicidal rating [1, 8]: 7.0
CYPSE herbicidal rating [2, 5]: 0.0
CYPSE herbicidal rating [2, 7]: 6.0
CYPSE herbicidal rating [2, 8]: 9.0
CYPIR herbicidal rating (Cyperus iria; [5]): 4.0
CYPIR herbicidal rating (Cyperus iria; [6]): 4.0
CYPIR herbicidal rating (Cyperus iria; [7]): 5.0
CYPIR herbicidal rating (Cyperus iria; [8]): 6.0
ORYSAT herbicidal rating (rice tolerance) ([3]; 0.0320 kg/ha, rated three to four weeks after treatment): 0.0
ORYSAT herbicidal rating (rice tolerance) ([3]; 0.0620 kg/ha, rated three to four weeks after treatment): 1.0
ORYSAT herbicidal rating (rice tolerance) [3, 9]: 3.0
ORYSAT herbicidal rating (rice tolerance) [3, 10]: 6.0
ECHORC herbicidal rating [4, 5]: 3.0
ECHORC herbicidal rating [4, 6]: 3.0
ECHORC herbicidal rating [4, 7]: 4.0
ECHORC herbicidal rating [4, 8]: 4.0

COC(=O)CN(Cc1nsc2ccc(-n3c(=O)cc(C(F)(F)F)n(C)c3=O)cc12)S(C)(=O)=O [Example 306, Glycine, N-{{5-[3,6-dihydro-3-methyl-2,6-dioxo-4-(trifluoromethyl)-1(2H)-pyrimidinyl]-1,2-benzisothiazol-3-yl}methyl}-N-(methylsulfonyl)-, methyl ester]
herbicidal effect rating, SAGPY (Sagittaria pygmaea, L.; [11]): 0.0
herbicidal effect rating, MOOVA [1, 11]: 0.0
herbicidal effect rating, CYPSE [2, 11]: 0.0
herbicidal effect rating, CYPIR (Cyperus iria; [11]): 0.0
herbicidal effect rating ORYSAT ([3]; Rate 0.2500 kg/ha, rated three to four weeks after treatment): 0.0
herbicidal effect rating, ECHORC [4, 11]: 0.0

CC(C)SCc1nsc2ccc(-n3c(=O)cc(C(F)(F)F)n(C)c3=O)cc12 [Example 202, 3-{3-[(Isopropylthio)methyl]-1,2-benzisothiazol-5-yl]-1-methyl-6-(trifluoromethyl)-2,4(1H,3H)-pyrimidinedione]
herbicidal effect rating, SAGPY (Sagittaria pygmaea, L.; [12]): 0.0
herbicidal effect rating, SAGPY (Sagittaria pygmaea, L.; [13]): 0.0
herbicidal effect rating, SAGPY (Sagittaria pygmaea, L.; [14]): 0.0
herbicidal effect rating, SAGPY (Sagittaria pygmaea, L.; [15]): 0.0
herbicidal effect rating, MOOVA [1, 12]: 0.0
herbicidal effect rating, MOOVA [1, 13]: 0.0
herbicidal effect rating, MOOVA [1, 14]: 0.0
herbicidal effect rating, MOOVA [1, 15]: 0.0
herbicidal effect rating, CYPSE [2, 12]: 0.0
herbicidal effect rating, CYPSE [2, 13]: 0.0
herbicidal effect rating, CYPSE [2, 14]: 0.0
herbicidal effect rating, CYPSE [2, 15]: 0.0
herbicidal effect rating, CYPIR (Cyperus iria; [12]): 9.0
herbicidal effect rating, CYPIR (Cyperus iria; [13]): 9.0
herbicidal effect rating, CYPIR (Cyperus iria; [14]): 9.0
herbicidal effect rating, CYPIR (Cyperus iria; [15]): 9.0
herbicidal effect rating, ORYSAT (rice tolerance) ([3]; 0.0313 kg/ha, rated three to four weeks after treatment): 3.0
herbicidal effect rating, ORYSAT (rice tolerance) ([3]; 0.0625 kg/ha, rated three to four weeks after treatment): 4.0
herbicidal effect rating, ORYSAT (rice tolerance) [3, 9]: 5.0
herbicidal effect rating, ORYSAT (rice tolerance) [3, 10]: 6.0
herbicidal effect rating, ECHORC [4, 12]: 1.0
herbicidal effect rating, ECHORC [4, 13]: 1.0
herbicidal effect rating, ECHORC [4, 14]: 2.0
herbicidal effect rating, ECHORC [4, 15]: 2.0

COCCCOCCCOC(=O)COc1ccc(C)cc1-c1nsc2ccc(-n3c(=O)cc(C(F)(F)F)n(C)c3=O)cc12 [Example 523, Acetic acid, {{2-{5-[3,6-dihydro-3-methyl-2,6-dioxo-4-(trifluoromethyl)-1(2H)-pyrimidinyl]-1,2-benzisothiazol-3-yl}-p-tolyl}oxy}-, 3-(3-methoxypropoxy)propyl ester]
herbicidal effect rating, SAGPY (Sagittaria pygmaea, L.; [16]): 0.0
herbicidal effect rating, SAGPY (Sagittaria pygmaea, L.; [17]): 0.0
herbicidal effect rating, SAGPY (Sagittaria pygmaea, L.; [18]): 0.0
herbicidal effect rating, SAGPY (Sagittaria pygmaea, L.; [19]): 0.0
herbicidal effect rating, MOOVA [1, 16]: 8.0
herbicidal effect rating, MOOVA [1, 17]: 9.0
herbicidal effect rating, MOOVA [1, 18]: 9.0
herbicidal effect rating, MOOVA [1, 19]: 9.0
herbicidal effect rating, CYPSE [2, 16]: 0.0
herbicidal effect rating, CYPSE [2, 17]: 0.0
herbicidal effect rating, CYPSE [2, 18]: 2.0
herbicidal effect rating, CYPSE [2, 19]: 9.0
herbicidal effect rating, CYPIR (Cyperus iria; [16]): 0.0
herbicidal effect rating, CYPIR (Cyperus iria; [17]): 2.0
herbicidal effect rating, CYPIR (Cyperus iria; [18]): 4.0
herbicidal effect rating, CYPIR (Cyperus iria; [19]): 8.0
herbicidal effect rating ORYSAT [3, 20]: 4.5
herbicidal effect rating ORYSAT [3, 21]: 4.5
herbicidal effect rating ORYSAT [3, 22]: 5.5
herbicidal effect rating ORYSAT [3, 23]: 7.0
herbicidal effect rating, ECHORC [4, 16]: 6.0
herbicidal effect rating, ECHORC [4, 17]: 8.0
herbicidal effect rating, ECHORC [4, 18]: 8.0
herbicidal effect rating, ECHORC [4, 19]: 9.0

Cn1c(C(F)(F)F)cc(=O)n(-c2ccc3snc(-c4ccccc4OCC(N)=O)c3c2)c1=O [Example 563, Acetamide, 2-{o-{5-[3,6-dihydro-3-methyl-2,6-dioxo-4-(trifluoromethyl)-1(2H)-pyrimidinyl]-1,2-benzisothiazol-3-yl}phenoxy}-]
herbicidal effect rating, SAGPY (Sagittaria pygmaea, L.; [16]): 0.0
herbicidal effect rating, SAGPY (Sagittaria pygmaea, L.; [17]): 0.0
herbicidal effect rating, SAGPY (Sagittaria pygmaea, L.; [18]): 0.0
herbicidal effect rating, SAGPY (Sagittaria pygmaea, L.; [19]): 2.0
herbicidal effect rating, SAGPY (Sagittaria pygmaea, L.; [24]): 4.0
herbicidal effect rating, MOOVA [1, 16]: 8.0
herbicidal effect rating, MOOVA [1, 17]: 9.0
herbicidal effect rating, MOOVA [1, 18]: 9.0
herbicidal effect rating, MOOVA [1, 19]: 9.0
herbicidal effect rating, MOOVA [1, 24]: 9.0
herbicidal effect rating, CYPSE [2, 16]: 0.0
herbicidal effect rating, CYPSE [2, 17]: 0.0
herbicidal effect rating, CYPSE [2, 18]: 0.0
herbicidal effect rating, CYPSE [2, 19]: 4.0
herbicidal effect rating, CYPSE [2, 24]: 0.0
herbicidal effect rating, CYPIR (Cyperus iria; [16]): 0.0
herbicidal effect rating, CYPIR (Cyperus iria; [17]): 2.0
herbicidal effect rating, CYPIR (Cyperus iria; [18]): 6.0
herbicidal effect rating, CYPIR (Cyperus iria; [19]): 6.0
herbicidal effect rating, CYPIR (Cyperus iria; [24]): 9.0
herbicidal effect rating ORYSAT [3, 20]: 4.0
herbicidal effect rating ORYSAT [3, 21]: 7.0
herbicidal effect rating ORYSAT [3, 22]: 7.0
herbicidal effect rating ORYSAT [3, 23]: 7.0
herbicidal effect rating ORYSAT ([3]; Rate 0.5000 kg/ha, rated 3-4 weeks after treatment): 4.0
herbicidal effect rating, ECHORC [4, 16]: 3.6
herbicidal effect rating, ECHORC [4, 17]: 5.1
herbicidal effect rating, ECHORC [4, 18]: 5.6
herbicidal effect rating, ECHORC [4, 19]: 9.0
herbicidal effect rating, ECHORC [4, 24]: 9.0
